Laboratory results taken from ChEMBL document CHEMBL4425168, “Dehydrozingerone Inspired Styryl Hydrazine Thiazole Hybrids as Promising Class of Antimycobacterial Agents” (ACS Med Chem Lett, 2016).
pIC50: −log10 of the molar value. Converted amounts (≈) assume the structure as drawn.

What was measured:
[1] = test system: Mycobacterium tuberculosis; assay: Antitubercular activity against Mycobacterium tuberculosis H37Rv after 7 days by broth macrodilution assay; format: functional; details: 168 h
[2] = test system: Mycobacterium tuberculosis; assay: Antitubercular activity against Mycobacterium tuberculosis H37Rv by microplate Alamar blue assay; format: functional
[3] = test system: Mycobacterium tuberculosis; assay: Antitubercular activity against Mycobacterium tuberculosis H37Rv assessed as bacterial growth inhibition in aerobic conditions by dual read out fluorescence assay; format: functional
[4] = test system: Mycobacterium tuberculosis; assay: Antitubercular activity against Mycobacterium tuberculosis H37Rv assessed as bacterial growth inhibition under aerobic conditions after 5 days by dual read-out fluorescence assay; format: functional, organism-based; details: 120 h
[5] = test system: Mycobacterium tuberculosis; assay: Antitubercular activity against oxygen-deprived Mycobacterium tuberculosis H37Rv assessed as bacterial growth inhibition preincubated for 10 days under anaerobic conditions followed by incubation under aerobic conditions for 28 hrs by LOR assay; format: functional, organism-based
[6] = test system: Mycobacterium tuberculosis; assay: Antitubercular activity against Mycobacterium tuberculosis H37Rv INH-R2 ATCC 35822 after 5 days; format: functional, organism-based
[7] = test system: Mycobacterium tuberculosis; assay: Antitubercular activity against Mycobacterium tuberculosis H37Rv RIF-R2 ATCC 35828 after 5 days; format: functional, organism-based; details: H37Rv RIF-R2 ATCC 35828, 120 h
[8] = test system: Mycobacterium tuberculosis; assay: Antitubercular activity against oxygen-deprived Mycobacterium tuberculosis H37Rv assessed as bacterial growth inhibition incubated for 5 days under aerobic conditions by LOR assay; format: functional, organism-based; details: 120 h
[9] = test system: Mycobacterium tuberculosis; assay: Antitubercular activity against Mycobacterium tuberculosis H37Rv expressing luxABCDE infected in differentiated human THP1 cells assessed as reduction in bacteria infected cells after 72 hrs by luminescence assay; format: functional, organism-based; details: THP-1, 72 h
THP-1 = assay: Cytotoxicity in differentiated human THP1 cells assessed as reduction in cell viability after 3 days by CellTiter-Glo assay; format: cell-based; details: THP-1, 72 h
Mycobacterium avium = assay: Antibacterial activity against Mycobacterium avium assessed as reduction in bacterial metabolic activity after 5 days by Alamar blue assay; format: functional; details: 120 h
[10] = test system: Mycobacterium tuberculosis; assay: Bactericidal activity against replicating Mycobacterium tuberculosis H37Rv assessed as reduction in colony forming units incubated for 21 days; format: functional; details: 504 h
[11] = test system: Mycobacteroides abscessus; assay: Antibacterial activity against Mycobacterium abscessus assessed as bacterial growth inhibition after 3 days by MABA method; format: functional; details: 72 h
[12] = test system: Mycobacterium tuberculosis; assay: Antitubercular activity against Mycobacterium tuberculosis H37Rv by radiometric assay; format: functional
[13] = Mycobacterium tuberculosis, H37Rv INH-R2 ATCC 35822, 120 h

With COC(=O)c1nc(N)sc1Cc1ccccc1 the MIC [1] was 0.06 µg/mL (≈ 0.242 µM).

For CC(=O)c1nc(/C=C/c2ccccc2)c2ncn(Cc3ccccc3)c2n1, the MIC [2] was 6.25 µM (≈ 2.22 µg/mL).

COc1ccc(-c2csc(N/N=C/c3ccc4c(c3)c3ccccc3n4C)n2)cc1OC gave an MIC [3] of 21 µM (≈ 9.29 µg/mL).

COc1ccc(/C=C/C(C)=N/Nc2nc(-c3cc(F)ccc3O)cs2)cc1OC gave an MIC [4] of 1.5 to 200 µM (≈ 0.62 to 82.7 µg/mL).

With COc1ccc(/C=C/C(C)=N/Nc2nc(-c3ccc(N)cc3)cs2)cc1OC the pIC50 [5] was 7.20, the MIC [5] was 46 µM (≈ 18.1 µg/mL) and the MIC [4] was 1.5 to 200 µM (≈ 0.592 to 78.9 µg/mL). For the same molecule, the pIC50 [6, 13] was 6.42, the IC90 [6, 13] was 1.7 µM and the MIC [6, 13] was 1.5 µM (≈ 0.592 µg/mL). For the same molecule, the pIC50 [7] was 6.12, the IC90 [7] was 9.2 µM and the MIC [7] was 6.3 µM (≈ 2.49 µg/mL). For the same molecule, the pIC50 [8] was 7.01, the MIC [8] was 0.28 µM (≈ 0.11 µg/mL) and the pIC50 [9] was > 7.01. For the same molecule, the pIC50 (THP-1) was 4.96, the MIC (Mycobacterium avium) was 100 µM (≈ 39.5 µg/mL) and the MBC [10] was 12 µM (≈ 4.73 µg/mL).

COc1ccc(/C=C/C(C)=N/Nc2nc(-c3ccc(C)cc3)cs2)cc1OC showed an MIC [4] of 1.5 to 200 µM (≈ 0.59 to 78.7 µg/mL).

For COc1ccc(/C=C/C(C)=N/Nc2nc(-c3ccc(Cl)c(Cl)c3)cs2)cc1OC, the MIC [4] was > 200 µM.

For COc1ccc(/C=C/C(C)=N/Nc2nc(-c3cccc(C(F)(F)F)c3)cs2)cc1OC, the MIC [4] was > 200 µM.

COc1ccc(/C=C/C(C)=N/NC(N)=S)cc1OC was tested, and the pIC50 [5] was 6.72, the MIC [5] was 29 µM (≈ 8.1 µg/mL) and the pIC50 [4] was 6.01. It also gave an MIC [4] of 1.5 to 200 µM (≈ 0.419 to 55.9 µg/mL), a pIC50 [6, 13] of 6.10 and an IC90 [6, 13] of 2.9 µM. For the same molecule, the MIC [6, 13] was 2.5 µM (≈ 0.698 µg/mL), the pIC50 [7] was 5.92 and the IC90 [7] was 5.9 µM. It also gave an MIC [7] of 4.8 µM (≈ 1.34 µg/mL), a pIC50 [8] of 6.82 and an MIC [8] of 0.5 µM (≈ 0.14 µg/mL). For the same molecule, the pIC50 [9] was > 7.01, the pIC50 (THP-1) was 4.30 to 4.96 and the MIC [11] was > 200 µM. For the same molecule, the MIC (Mycobacterium avium) was > 200 µM and the MBC [10] was 6 µM (≈ 1.68 µg/mL).

COc1ccc(/C=C/C(C)=N/Nc2nc(-c3ccc(OC)c(OC)c3)cs2)cc1OC gave a pIC50 [4] of 5.13, an MIC [4] of 16 µM (≈ 7.03 µg/mL) and a pIC50 [6, 13] of 5.15. For the same molecule, the IC90 [6, 13] was 12 µM, the MIC [6, 13] was 13 µM (≈ 5.71 µg/mL) and the pIC50 [7] was 4.72. For the same molecule, the IC90 [7] was > 200 µM, the MIC [7] was 46 µM (≈ 20.2 µg/mL) and the pIC50 (THP-1) was 4.42. For the same molecule, the MIC [11] was > 200 µM and the MIC (Mycobacterium avium) was > 200 µM.

COc1ccc(-c2csc(N/N=C(C)/C=C/c3ccc(OC)c(OC)c3)n2)cc1 was tested, and the pIC50 [4] was 5.08, the MIC [4] was 15 µM (≈ 6.14 µg/mL) and the pIC50 [6, 13] was 5.10. The IC90 [6, 13] was > 50 µM, the MIC [6, 13] was 12 µM (≈ 4.91 µg/mL) and the pIC50 [7] was 5.06. For the same molecule, the IC90 [7] was > 50 µM, the MIC [7] was 31 µM (≈ 12.7 µg/mL) and the pIC50 (THP-1) was 4.30 to 4.96. For the same molecule, the MIC [11] was > 200 µM and the MIC (Mycobacterium avium) was > 200 µM.

In the case of COc1ccc(/C=C/C(C)=N/Nc2nc(-c3ccccc3O)cs2)cc1OC, the pIC50 [4] was 4.62 and the MIC [4] was 40 µM (≈ 15.8 µg/mL).

COc1ccc(/C=C/C(C)=N/Nc2nc(-c3ccccc3)cs2)cc1OC showed an MIC [4] of 1.5 to 200 µM (≈ 0.569 to 75.9 µg/mL).

Work on COc1ccc(/C=C/C(C)=N/Nc2nc(-c3c(OC)cccc3OC)cs2)cc1OC yielded a pIC50 [4] of 5.18, an MIC [4] of 28 µM (≈ 12.3 µg/mL) and a pIC50 [6, 13] of 5.25. The IC90 [6, 13] was > 25 µM, the MIC [6, 13] was 19 µM (≈ 8.35 µg/mL) and the pIC50 [7] was 5.00. For the same molecule, the IC90 [7] was > 25 µM, the MIC [7] was 41 µM (≈ 18 µg/mL) and the pIC50 (THP-1) was 4.30 to 4.96. For the same molecule, the MIC [11] was > 100 µM and the MIC (Mycobacterium avium) was > 100 µM.

O=[N+]([O-])c1ccc2nc(-c3ccccc3-c3nnc(/C=C/c4ccccc4)o3)[nH]c2c1 showed an MIC [12] of 12.5 µg/mL (≈ 30.5 µM).

In the case of COc1ccc(/C=C/C(C)=N/Nc2nc(-c3ccc(Br)cc3)cs2)cc1OC, the MIC [4] was > 200 µM.

COc1ccc(/C=C/C(C)=N/Nc2nc(-c3ccc([N+](=O)[O-])cc3)cs2)cc1OC was tested, and the MIC [4] was > 200 µM.

With COc1ccc(O)c(-c2csc(N/N=C(C)/C=C/c3ccc(OC)c(OC)c3)n2)c1 the pIC50 [4] was 4.64 and the MIC [4] was 88 µM (≈ 37.4 µg/mL).

COc1ccc(/C=C/C(C)=N/Nc2nc(-c3cc(Br)ccc3O)cs2)cc1OC gave an MIC [4] of 1.5 to 200 µM (≈ 0.712 to 94.9 µg/mL).

COc1ccc(/C=C/C(C)=N/Nc2nc(-c3ccc(Cl)cc3)cs2)cc1OC showed an MIC [4] of 1.5 to 200 µM (≈ 0.621 to 82.8 µg/mL).

In the case of NNC(=O)c1ccncc1 [ISONIAZID], the pIC50 [6, 13] was < 3.70, the IC90 [6, 13] was > 200 µM and the MIC [6, 13] was > 200 µM. The pIC50 [7] was 6.27, the IC90 [7] was 0.6 µM and the MIC [7] was 0.62 µM (≈ 0.085 µg/mL).

Molecule C[C@H]1COc2c(N3CCN(C)CC3)c(F)cc3c(=O)c(C(=O)O)cn1c23.C[C@H]1COc2c(N3CCN(C)CC3)c(F)cc3c(=O)c(C(=O)O)cn1c23.O [LEVOFLOXACIN] has a pIC50 [6, 13] of 6.08, an IC90 [6, 13] of 1.4 µM and an MIC [6, 13] of 1.4 µM. The pIC50 [7] was 6.22, the IC90 [7] was 1.2 µM and the MIC [7] was 1.1 µM.

For CO[C@H]1/C=C/O[C@@]2(C)Oc3c(C)c(O)c4c(O)c(c(/C=N/N5CCN(C)CC5)c(O)c4c3C2=O)NC(=O)/C(C)=C\C=C\[C@H](C)[C@H](O)[C@@H](C)[C@@H](O)[C@@H](C)[C@H](OC(C)=O)[C@@H]1C [RIFAMPIN], the MIC [4] was 1.5 to 200 µM (≈ 1.23 to 165 µg/mL), the IC90 [6] was 0.012 µM and the pIC50 [6, 13] was 8.33. The MIC [6, 13] was 0.0065 µM (≈ 0.00535 µg/mL), the pIC50 [7] was < 4.30 and the IC90 [7] was > 50 µM. For the same molecule, the MIC [7] was > 50 µM and the MIC (Mycobacterium avium) was 0.1 µM (≈ 0.0823 µg/mL).
